US6710049B2, “Azole compounds as anti-fungal agents” (Ranbaxy Laboratories Limited, priority 2000, dated 2004)
≈ marks a conversion by molar mass, not a printed value.

What was measured:
Fusarium 18270 = assay: MFC determination (subculture on Sabouraud Dextrose Agar); type: cell-based; conditions: Fusarium, 18270, read-out: Minimum Fungicidal Concentration (MFC)
Excerpt: (§1) The in-vitro evaluation of the antifungal activity of the compounds can be performed by determining the minimum inhibitory concentration (MIC) as shown in Table 1 which is the concentration of the test compound in Rosewell Park Memorial Institute (RPMI) 1640 liquid medium buffered with 3-(Morpholino)propanesulphonic acid (MOPS) to pH 7, at which there is significant inhibition of the particular fungi. In practice the National Committee for Clinical Laboratory Standard (NCCLS) M27A document for Candida and Cryptococcus and M38P for Aspergillus was used to determine the MIC against yeast and filamentous fungi with suitable modifications for dermatophytes to other filamentous fungi. Three quality control strains were included each time the MIC were determined and readings recorded only when the Quality Control results fell into the acceptable range. After MIC results had been recorded, 100 μl from each of the well showing no growth was spread over Sabouraud Dextrose Agar (SDA) to determine the minimum fungicidal concentration (MFC) as shown in Table 2.

Fusarium (Ceylon) = assay: as above; type: cell-based; conditions: read-out: Minimum Fungicidal Concentration (MFC)
Excerpt: as §1

Rhizopus (Ceylon) [1] = assay: as above; type: cell-based; conditions: read-out: Minimum Fungicidal Concentration (MFC)
Excerpt: as §1

A flavus P2 - 1045 [2] = assay: as above; type: cell-based; conditions: read-out: Minimum Fungicidal Concentration (MFC)
Excerpt: as §1

A niger P1 - 1046 [3] = assay: as above; type: cell-based; conditions: read-out: Minimum Fungicidal Concentration (MFC)
Excerpt: as §1

C krusei 6258 [4] = assay: as above; type: cell-based; conditions: read-out: Minimum Fungicidal Concentration (MFC)
Excerpt: as §1

Penicillium H - 1048 [5] = assay: as above; type: cell-based; conditions: H1048, read-out: Minimum Fungicidal Concentration (MFC)
Excerpt: as §1

Penicillium I - 1049 [6] = assay: as above; type: cell-based; conditions: I1049, read-out: Minimum Fungicidal Concentration (MFC)
Excerpt: as §1

Penicillium 1641 = assay: as above; type: cell-based; conditions: read-out: Minimum Fungicidal Concentration (MFC)
Excerpt: as §1

Alternaria 1051 [7] = assay: as above; type: cell-based; conditions: read-out: Minimum Fungicidal Concentration (MFC)
Excerpt: as §1

A flavus P3 - 1041 [8] = assay: as above; type: cell-based; conditions: read-out: Minimum Fungicidal Concentration (MFC)
Excerpt: as §1

Mucor (Ceylon) = assay: as above; type: cell-based; conditions: read-out: Minimum Fungicidal Concentration (MFC)
Excerpt: as §1

A flavus E3 - 1044 [9] = assay: as above; type: cell-based; conditions: read-out: Minimum Fungicidal Concentration (MFC)
Excerpt: as §1

A flavus E4 - 1042 [10] = assay: as above; type: cell-based; conditions: read-out: Minimum Fungicidal Concentration (MFC)
Excerpt: as §1

A niger E5 - 1047 [11] = assay: as above; type: cell-based; conditions: read-out: Minimum Fungicidal Concentration (MFC)
Excerpt: as §1

Fusarium 29600 = assay: as above; type: cell-based; conditions: Fusarium, 29600, read-out: Minimum Fungicidal Concentration (MFC)
Excerpt: as §1

Rhizopus 1052 [12] = assay: as above; type: cell-based; conditions: read-out: Minimum Fungicidal Concentration (MFC)
Excerpt: as §1

C parapsilosis 22019 [13] = assay: as above; type: cell-based; conditions: read-out: Minimum Fungicidal Concentration (MFC)
Excerpt: as §1

Penicillium 31620 = assay: as above; type: cell-based; conditions: read-out: Minimum Fungicidal Concentration (MFC)
Excerpt: as §1

Penicillium 2548 [14] = assay: as above; type: cell-based; conditions: read-out: Minimum Fungicidal Concentration (MFC)
Excerpt: as §1

Penicillium 2306 = assay: as above; type: cell-based; conditions: read-out: Minimum Fungicidal Concentration (MFC)
Excerpt: as §1

Penicillium 191 [15] = assay: as above; type: cell-based; conditions: read-out: Minimum Fungicidal Concentration (MFC)
Excerpt: as §1

C albicans Y01.19 = assay: MIC determination (NCCLS broth method); type: cell-based, Candida albicans; conditions: Candida albicans, read-out: Minimum Inhibitory Concentration (MIC)
Excerpt: as §1

C albicans A-26 = assay: MIC determination (NCCLS broth method); type: cell-based, Candida albicans; conditions: Candida albicans, A26, read-out: Minimum Inhibitory Concentration (MIC)
Excerpt: as §1

Rhizopus (Ceylon) [16] = assay: MIC determination (NCCLS broth method); type: cell-based; conditions: read-out: Minimum Inhibitory Concentration (MIC)
Excerpt: as §1

A flavus P2 - 1045 [17] = assay: MIC determination (NCCLS broth method); type: cell-based; conditions: read-out: Minimum Inhibitory Concentration (MIC)
Excerpt: as §1

Penicillium 3162 = assay: MIC determination (NCCLS broth method); type: cell-based; conditions: read-out: Minimum Inhibitory Concentration (MIC)
Excerpt: as §1

C tropicalis 750 = assay: MIC determination (NCCLS broth method); type: cell-based; conditions: read-out: Minimum Inhibitory Concentration (MIC)
Excerpt: as §1

A niger P1 - 1046 [18] = assay: MIC determination (NCCLS broth method); type: cell-based; conditions: read-out: Minimum Inhibitory Concentration (MIC)
Excerpt: as §1

C krusei 6258 [19] = assay: MIC determination (NCCLS broth method); type: cell-based; conditions: read-out: Minimum Inhibitory Concentration (MIC)
Excerpt: as §1

Penicillium H - 1048 [20] = assay: MIC determination (NCCLS broth method); type: cell-based; conditions: H1048, read-out: Minimum Inhibitory Concentration (MIC)
Excerpt: as §1

Penicillium I - 1049 [21] = assay: MIC determination (NCCLS broth method); type: cell-based; conditions: I1049, read-out: Minimum Inhibitory Concentration (MIC)
Excerpt: as §1

Alternaria 1051 [22] = assay: MIC determination (NCCLS broth method); type: cell-based; conditions: read-out: Minimum Inhibitory Concentration (MIC)
Excerpt: as §1

C krusei 766.1 = assay: MIC determination (NCCLS broth method); type: cell-based; conditions: read-out: Minimum Inhibitory Concentration (MIC)
Excerpt: as §1

A flavus P3 - 1041 [23] = assay: MIC determination (NCCLS broth method); type: cell-based; conditions: read-out: Minimum Inhibitory Concentration (MIC)
Excerpt: as §1

A flavus E3 - 1044 [24] = assay: MIC determination (NCCLS broth method); type: cell-based; conditions: read-out: Minimum Inhibitory Concentration (MIC)
Excerpt: as §1

A flavus E2 - 1043 = assay: MIC determination (NCCLS broth method); type: cell-based; conditions: read-out: Minimum Inhibitory Concentration (MIC)
Excerpt: as §1

A flavus E4 - 1042 [25] = assay: MIC determination (NCCLS broth method); type: cell-based; conditions: read-out: Minimum Inhibitory Concentration (MIC)
Excerpt: as §1

Fusarium 1050 = assay: MIC determination (NCCLS broth method); type: cell-based; conditions: read-out: Minimum Inhibitory Concentration (MIC)
Excerpt: as §1

C glabrata 90030 = assay: MIC determination (NCCLS broth method); type: cell-based; conditions: read-out: Minimum Inhibitory Concentration (MIC)
Excerpt: as §1

A niger E5 - 1047 [26] = assay: MIC determination (NCCLS broth method); type: cell-based; conditions: read-out: Minimum Inhibitory Concentration (MIC)
Excerpt: as §1

H capsulatum = assay: MIC determination (NCCLS broth method); type: cell-based; conditions: read-out: Minimum Inhibitory Concentration (MIC)
Excerpt: as §1

Fusarium 1827C = assay: MIC determination (NCCLS broth method); type: cell-based; conditions: read-out: Minimum Inhibitory Concentration (MIC)
Excerpt: as §1

Rhizopus 1052 [27] = assay: MIC determination (NCCLS broth method); type: cell-based; conditions: read-out: Minimum Inhibitory Concentration (MIC)
Excerpt: as §1

C parapsilosis 22019 [28] = assay: MIC determination (NCCLS broth method); type: cell-based; conditions: read-out: Minimum Inhibitory Concentration (MIC)
Excerpt: as §1

Fusarium 2960C = assay: MIC determination (NCCLS broth method); type: cell-based; conditions: read-out: Minimum Inhibitory Concentration (MIC)
Excerpt: as §1

Penicillium 2548 [29] = assay: MIC determination (NCCLS broth method); type: cell-based; conditions: read-out: Minimum Inhibitory Concentration (MIC)
Excerpt: as §1

Penicillium 191 [30] = assay: MIC determination (NCCLS broth method); type: cell-based; conditions: read-out: Minimum Inhibitory Concentration (MIC)
Excerpt: as §1

SMILES: OC(Cn1cncn1)(Cn1cncn1)c1ccc(F)cc1F [Fluconazole]
- MFC (Fusarium 18270): > 128 µg/mL
- MFC (Fusarium (Ceylon)): > 128 µg/mL
- MFC (Rhizopus (Ceylon) [1]): > 128 µg/mL
- MFC (A flavus P2 - 1045 [2]): > 128 µg/mL
- MFC (A niger P1 - 1046 [3]): > 128 µg/mL
- MFC (C krusei 6258 [4]): 128 µg/mL (≈ 418 µM)
- MFC (Penicillium H - 1048 [5]): > 128 µg/mL
- MFC (Penicillium I - 1049 [6]): > 128 µg/mL
- MFC (Penicillium 1641): > 128 µg/mL
- MFC (Alternaria 1051 [7]): > 128 µg/mL
- MFC (A flavus P3 - 1041 [8]): > 128 µg/mL
- MFC (Mucor (Ceylon)): > 128 µg/mL
- MFC (A flavus E3 - 1044 [9]): > 128 µg/mL
- MFC (A flavus E4 - 1042 [10]): > 128 µg/mL
- MFC (A niger E5 - 1047 [11]): > 128 µg/mL
- MFC (Fusarium 29600): > 128 µg/mL
- MFC (Rhizopus 1052 [12]): > 128 µg/mL
- MFC (C parapsilosis 22019 [13]): 4 µg/mL (≈ 13.1 µM)
- MFC (Penicillium 31620): > 128 µg/mL
- MFC (Penicillium 2548 [14]): > 128 µg/mL
- MFC (Penicillium 2306): > 128 µg/mL
- MFC (Penicillium 191 [15]): > 128 µg/mL
- MIC (C albicans Y01.19): 8 µg/mL (≈ 26.1 µM)
- MIC (C albicans A-26): 0.5 µg/mL (≈ 1.63 µM)
- MIC (Rhizopus (Ceylon) [16]): > 128 µg/mL
- MIC (A flavus P2 - 1045 [17]): > 128 µg/mL
- MIC (Penicillium 3162): > 128 µg/mL
- MIC (C tropicalis 750): 0.5 µg/mL (≈ 1.63 µM)
- MIC (A niger P1 - 1046 [18]): 128 µg/mL (≈ 418 µM)
- MIC (C krusei 6258 [19]): 32 µg/mL (≈ 104 µM)
- MIC (Penicillium H - 1048 [20]): > 128 µg/mL
- MIC (Penicillium I - 1049 [21]): > 128 µg/mL
- MIC (Alternaria 1051 [22]): > 128 µg/mL
- MIC (C krusei 766.1): 128 µg/mL (≈ 418 µM)
- MIC (A flavus P3 - 1041 [23]): > 128 µg/mL
- MIC (A flavus E3 - 1044 [24]): > 128 µg/mL
- MIC (A flavus E2 - 1043): > 128 µg/mL
- MIC (A flavus E4 - 1042 [25]): > 128 µg/mL
- MIC (Fusarium 1050): > 128 µg/mL
- MIC (C glabrata 90030): 4 µg/mL (≈ 13.1 µM)
- MIC (A niger E5 - 1047 [26]): > 128 µg/mL
- MIC (H capsulatum): 4 µg/mL (≈ 13.1 µM)
- MIC (Fusarium 1827C): > 128 µg/mL
- MIC (Rhizopus 1052 [27]): > 128 µg/mL
- MIC (C parapsilosis 22019 [28]): 2 µg/mL (≈ 6.53 µM)
- MIC (Fusarium 2960C): > 128 µg/mL
- MIC (Penicillium 2548 [29]): 128 µg/mL (≈ 418 µM)
- MIC (Penicillium 191 [30]): 64 µg/mL (≈ 209 µM)
